From patent publication US20230257385A1, “SALT AND SOLID FORMS OF TABERNANTHALOG” (priority 2021, published 2023)
Counter-ions that a name gives are not always drawn. Like-named read-outs stand apart in the source and are kept apart here.

Tests used:
[1] = cited from earlier work
[2] = Thermocycling of the monofumarate salt (Experiment Reference 9); type: physicochemical; settings: for XRPD (moist pellet): form (pattern) of wet pellet after thermocycling; for crystal form change following dry: moist pellet vs oven dried pellet after thermocycling, ✓ / x; for XRPD crystallinity (oven dried): tabernanthalog monofumarate salt thermocycled between 20° C. and peak T (75% of solvent b.p.), solvent, input and number of cycles per sample reference
Procedure: The tabernanthalog monofumarate salt (Pattern #1, 75 mg, 1 wt) was weighed out in to 4 separate vials and the corresponding solvents (750 μl, 10 vol) from Table 89 were charged.
The suspensions underwent constant amplitude thermocycling at +0.5° C./min up to 75% of the relevant solvent b.p. and −0.5° C./min down to 20° C. The thermocycle was repeated 5 times for 9-A (Experiment Reference 9-Sample Reference A) to 9-D (Experiment Reference 9-Sample Reference D) prior to working up the samples, analyzed the by XRPD (wet and dry). 9-E (Experiment Reference 9-Sample Reference E) and 9-F (Experiment Reference 9-Sample Reference F) were subjected to 10 cycles and 9-G (Experiment Reference 9-Sample Reference G) to 35 cycles.
Thermocycling in different solvents can promote the formation of alternative polymorphic forms. The tabernanthalog monofumarate salt (Pattern #1), was heated and cooled between 20° C. and 75% of the relevant solvent b.p. at 0.5° C./minute, for 5 consecutive cycles; a 10-minute dwell was incorporated at each inflection. Thermocycling is ripening technique, that encourages particle size enlargement and promotes the evolution of the API into a stable phase. […] The products were analyzed both wet and dry to determine if form changes had occurred, all products were consistent with previously encountered patterns, and by DSC none of the products were single phase.

[3] = Equilibrium humidity evaluation 75% RH/40° C., 10 days (Example 8, Experiment 6); type: physicochemical
Procedure: The experimental procedure that accompany this experiment is provided in Section G.ii.
All forms were maintained under constant equilibrium humidity (75% RH). XRPD, DSC, TGA, PLM and ^1H NMR analyses were performed on the absorbents at t=5 d and t=10 d, to confirm their physical fates and to determine the extent of residual solvent exchange or sequestration.
100 mg portions of Tabernanthalog salts ([…]) were placed in the relevant open vials. The powders were finely divided and distributed evenly over the base of the vial, such that equal material coverage across the panel was observed. These samples were then maintained 40° C. under 75% RH. The samples were sub-sampled at intervals of 5 and 10 days and analyzed by ^1H NMR, HPLC, XRPD, DSC, TGA and PLM, for evidence of phase change or chemical degradation.

[4] = Stability examination of supplied monofumarate material at 40° C./75% RH (Example 5, Experiment Reference 2); type: physicochemical
[5] = Dynamic vapour sorption (DVS) of selected salts (Example 8); type: physicochemical
Procedure: DVS: The moisture sorption properties of the feed API were analyzed by DVS Intrinsic instrument (Surface Measurement System). Approximately 20-50 mg of API was weighed on an aluminum pan and loaded into the instrument equilibrated at 25° C. The sample was allowed to equilibrate under dry atmosphere (0% relative humidity) for 60 minutes before increasing the humidity from 0% to 30% at 5% step increment and from 30% to 90% at 10% step increment. A desorption cycle was also applied from 90% to 30% (10% step) and from 30% to 0% (5% decrement). A rate of change in mass per time unit (dm/dt) of 0.002%/min was set as the equilibrium parameter. Kinetic and isotherm graphs were calculated.

[6] = counter ion (acid), theoretical pKa value

For `O=C(O)[C@H](O)[C@@H](O)[C@H](O)[C@H](O)CO` [D-Gluconic acid], the “pKa1” value [1, 6] is listed as 3.8 and the pKa1 ([1]; counter ion of the salt screen) is listed as 3.80.
For `O=C[C@H](O)[C@@H](O)[C@H](O)[C@H](O)C(=O)O` [D-Glucuronic acid], the “pKa1” value [1, 6] is given as 3.2 and the pKa1 ([1]; counter ion of the salt screen) is given as 3.20.
For `CCS(=O)(=O)O` [Ethane sulfonic acid], the “pKa1” value [1, 6] is given as 2.05.
In the case of `O=S(=O)(O)CCS(=O)(=O)O` [Ethane-1,2-disulfonic acid], the pKa1 ([1]; counter ion of the salt screen) is given as −2.10 and the pKa2 ([1]; counter ion of the salt screen) is given as −1.50.
For `CCS(=O)(=O)O` [Ethanesulfonic acid], the pKa1 ([1]; counter ion of the salt screen) is given as −2.10 and the pKa2 ([1]; counter ion of the salt screen) is given as −1.50.
In the case of `O=C(O)[C@@H](O)[C@H](O)[C@H](O)[C@@H](O)C(=O)O` [Galactaric acid], the “pKa1” value [1, 6] is listed as 3.1 and the “pKa2” value [1, 6] is listed as 3.6.
In the case of `O=C(O)CO` [Glycolic acid], the “pKa1” value [1, 6] is listed as 3.3 and the pKa1 ([1]; counter ion of the salt screen) is listed as 3.30.
For `Br` [Hydrobromic acid], the pKa1 ([1]; counter ion of the salt screen) is given as −9.00.
For `COc1ccc2c3c([nH]c2c1)CCN(C)CC3.O=C(O)/C=C/C(=O)O` [Pattern 9-A], the “XRPD (moist pellet)” value [2] was “Incoherent”, the “crystal form change following dry” value [2] was “✓” and the “XRPD crystallinity (oven dried)” value [2] was 82.1%.
In the case of `COc1ccc2c3c([nH]c2c1)CCN(C)CC3.O=C(O)/C=C/C(=O)O` [Pattern 9-B], the “XRPD (moist pellet)” value [2] is reported as “Pattern #1” and the “XRPD crystallinity (oven dried)” value [2] is reported as 73.6%.
For `COc1ccc2c3c([nH]c2c1)CCN(C)CC3.O=C(O)/C=C/C(=O)O` [Pattern 9-C], the “XRPD (moist pellet)” value [2] was “Pattern #8” and the “XRPD crystallinity (oven dried)” value [2] was 72.8%.
For `COc1ccc2c3c([nH]c2c1)CCN(C)CC3.O=C(O)/C=C/C(=O)O` [Pattern 9-D], the “XRPD (moist pellet)” value [2] was “Pattern #3” and the “XRPD crystallinity (oven dried)” value [2] was 74.5%.
With `COc1ccc2c3c([nH]c2c1)CCN(C)CC3.O=C(O)/C=C/C(=O)O` [Pattern 9-E] the “XRPD (moist pellet)” value [2] was “Pattern #2c” and the “XRPD crystallinity (oven dried)” value [2] was 77.1%.
For `COc1ccc2c3c([nH]c2c1)CCN(C)CC3.O=C(O)/C=C/C(=O)O` [Pattern 9-F], the “XRPD (moist pellet)” value [2] was “Pattern #2c”, the “crystal form change following dry” value [2] was “✓” and the “XRPD crystallinity (oven dried)” value [2] was 82.3%.
In the case of `COc1ccc2c3c([nH]c2c1)CCN(C)CC3.O=C(O)/C=C/C(=O)O` [Pattern 9-G], the “XRPD (moist pellet)” value [2] is reported as “Pattern #2c” and the “XRPD crystallinity (oven dried)” value [2] is reported as 81.1%.
In the case of `COc1ccc2c3c([nH]c2c1)CCN(C)CC3.O=C(O)c1ccccc1` [Sample 16-C2], the “Tabernanthalog RRT = 1.00 (trended HPLC data, chemical purity)” value ([3]; Benzoate salt, t = 10 d at 75% RH at 40° C.) is reported as 98.17.
In the case of `COc1ccc2c3c([nH]c2c1)CCN(C)CC3.O=C(O)/C=C/C(=O)O` [Tabernanthalog fumarate (CAT8931)], the “HPLC (% area)” value ([4]; 2-A, open-necked, wide vial at 75% RH/40° C., t = 2 w) is reported as 97.26 % area, the “HPLC (% area)” value ([4]; 2-A, open-necked, wide vial at 75% RH/40° C., t = 3 w) is reported as 97.01 % area and the “HPLC (% area)” value ([4]; 2-A, open-necked, wide vial at 75% RH/40° C., t = 4 w) is reported as 97.98 % area. The “HPLC (% area)” value ([4]; 2-A, open-necked, wide vial at 75% RH/40° C., t = 5 w) was 97.34 % area, the “HPLC (% area)” value ([4]; 2-B, sealed PK0056 electrostatic bags at 75% RH/40° C., t = 2 w) was 97.44 % area and the “HPLC (% area)” value ([4]; 2-B, sealed PK0056 electrostatic bags at 75% RH/40° C., t = 3 w) was 97.02 % area. For the same compound, the “HPLC (% area)” value ([4]; 2-B, sealed PK0056 electrostatic bags at 75% RH/40° C., t = 4 w) was 98.38 % area, the “HPLC (% area)” value ([4]; 2-B, sealed PK0056 electrostatic bags at 75% RH/40° C., t = 5 w) was 97.54 % area and the “HPLC (% area)” value ([4]; input batch, before exposure) was 97.64 % area.
With `COc1ccc2c3c([nH]c2c1)CCN(C)CC3` [supplied material (Pattern #1), 8-methoxy-3-methyl-1H,2H,3H,4H,5H,6H-azepino[4,5-b]indole fumarate] the “physical and chemical stability” value ([4]; 75% RH at 40° C., open vial and double polyethene bagged, up to 5 w, XRPD, HPLC, TGA, DSC, fumarate) was “no evidence for hydrate formation, chemical degradation or disproportionation”.
With `COc1ccc2c3c([nH]c2c1)CCN(C)CC3.O=C(O)C(O)C(O)C(=O)O` [tabernanthalog tartrate salt] the DVS sorption/desorption isotherm ([5]; 0 to 90 to 0% RH, 25° C., dm/dt 0.002%/min) was “hygroscopic type of isotherm”, the “DVS 0 to 90 to 0% RH (dm/dt <0.002%), mass change” value (from here on “DVS 0 to 90 to 0% RH … mass change”) ([5]; desorption, 0.0% RH) was 0.02% and the “DVS 0 to 90 to 0% RH … mass change” value ([5]; desorption, 5.0% RH) was 0.03%. The “DVS 0 to 90 to 0% RH … mass change” value ([5]; desorption, 10.0% RH) was 0.04%, the “DVS 0 to 90 to 0% RH … mass change” value ([5]; desorption, 15.0% RH) was 0.07% and the “DVS 0 to 90 to 0% RH … mass change” value ([5]; desorption, 20.0% RH) was 0.08%. For the same compound, the “DVS 0 to 90 to 0% RH … mass change” value ([5]; desorption, 25.0% RH) was 0.11%, the “DVS 0 to 90 to 0% RH … mass change” value ([5]; desorption, 30.0% RH) was 0.13% and the “DVS 0 to 90 to 0% RH … mass change” value ([5]; desorption, 40.0% RH) was 0.20%. The “DVS 0 to 90 to 0% RH … mass change” value ([5]; desorption, 50.0% RH) was 0.27%, the “DVS 0 to 90 to 0% RH … mass change” value ([5]; desorption, 60.0% RH) was 0.37% and the “DVS 0 to 90 to 0% RH … mass change” value ([5]; desorption, 70.0% RH) was 0.51%. The “DVS 0 to 90 to 0% RH … mass change” value ([5]; desorption, 80.0% RH) was 0.75%, the “DVS 0 to 90 to 0% RH … mass change” value ([5]; desorption, 90.0% RH) was 1.34% and the “DVS 0 to 90 to 0% RH … mass change” value ([5]; sorption, 0.0% RH) was 0.00%. For the same compound, the “DVS 0 to 90 to 0% RH … mass change” value ([5]; sorption, 5.0% RH) was 0.01%, the “DVS 0 to 90 to 0% RH … mass change” value ([5]; sorption, 10.0% RH) was 0.02% and the “DVS 0 to 90 to 0% RH … mass change” value ([5]; sorption, 15.0% RH) was 0.04%. The “DVS 0 to 90 to 0% RH … mass change” value ([5]; sorption, 20.0% RH) was 0.05%, the “DVS 0 to 90 to 0% RH … mass change” value ([5]; sorption, 25.0% RH) was 0.07% and the “DVS 0 to 90 to 0% RH … mass change” value ([5]; sorption, 30.0% RH) was 0.10%. For the same compound, the “DVS 0 to 90 to 0% RH … mass change” value ([5]; sorption, 40.0% RH) was 0.16%, the “DVS 0 to 90 to 0% RH … mass change” value ([5]; sorption, 50.0% RH) was 0.24% and the “DVS 0 to 90 to 0% RH … mass change” value ([5]; sorption, 60.0% RH) was 0.34%. The “DVS 0 to 90 to 0% RH … mass change” value ([5]; sorption, 70.0% RH) was 0.48%, the “DVS 0 to 90 to 0% RH … mass change” value ([5]; sorption, 80.0% RH) was 0.72% and the “DVS 0 to 90 to 0% RH … mass change” value ([5]; sorption, 90.0% RH) was 1.34%. For the same compound, the “change in chemical purity (trended HPLC)” value ([3]; 75% RH/40° C., after 10 days) was “largest decrease in chemical purity”, the “water uptake / hydrate formation (TGA, DSC)” value ([3]; 75% RH/40° C., t=5 d and t=10 d) was “no significant water absorption” and the “powder diffraction pattern versus input (form stability)” value ([3]; 75% RH/40° C., t=5 days and t=10 days) was “no significant changes to the powder diffraction pattern”. The “Tabernanthalog RRT = 1.00 (trended HPLC data, chemical purity)” value ([3]; Tartrate salt, input before humidity exposure) was 99.39.
For (−)-L-Malic acid, the “pKa1” value [1, 6] is given as 3.5, the “pKa2” value [1, 6] is given as 5.1 and the pKa1 ([1]; counter ion of the salt screen) is given as 3.50. The pKa2 ([1]; counter ion of the salt screen) was 5.10.
